Active and inactive are the calls of the source. The rule behind the calls is not given here. Bridge positions count the residues as written; N and C are the ends. Square brackets hold non-standard residues; d marks the D form. Peptide text beside a SMILES is read from it. AllylGly = C=CC[C@H](N)C(=O)O; Aoc = NCCCCCCCC(=O)O

In test [1] the target is T1, Prostate-specific antigen (Homo sapiens) (UniProt P07288).
T1 sequence (whole entry): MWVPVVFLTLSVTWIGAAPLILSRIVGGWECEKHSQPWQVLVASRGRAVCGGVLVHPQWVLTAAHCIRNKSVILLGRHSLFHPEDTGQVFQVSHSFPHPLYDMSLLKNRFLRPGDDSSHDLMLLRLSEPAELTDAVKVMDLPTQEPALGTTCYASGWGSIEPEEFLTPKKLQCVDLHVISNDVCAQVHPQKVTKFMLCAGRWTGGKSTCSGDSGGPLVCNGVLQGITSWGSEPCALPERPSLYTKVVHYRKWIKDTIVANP
In words: Stimulation of KLK3 (unknown origin) proteolytic activity using chromogenic chymotrypsin MeO-Suc-Arg-Pro-Tyr-pNA substrate at 20 ug/ml pre-incubated for 30 mins before addition of substrate by […] relative to untreated control.

For test [2], the target named is T1, Prostate-specific antigen (Homo sapiens). In words: Stimulation of KLK3 (unknown origin) proteolytic activity using chromogenic chymotrypsin MeO-Suc-Arg-Pro-Tyr-pNA substrate at 200 ug/ml pre-incubated for 30 mins before addition of substrate by […] relative to untreated control.

In turn, `CC(C)[C@@H]1NC(=O)[C@@H](N)CSSC[C@@H](C(N)=O)NC(=O)[C@H]([C@@H](C)O)NC(=O)[C@H](Cc2c[nH]c3ccccc23)NC(=O)[C@@H]2CSSC[C@H](NC(=O)[C@H](Cc3ccc(O)cc3)NC(=O)[C@H](C)NC1=O)C(=O)NCC(=O)N[C@@H](CCC(=O)O)C(=O)N[C@@H](Cc1cnc[nH]1)C(=O)N[C@@H](Cc1cnc[nH]1)C(=O)N2` (H-CVAYCGEHHCWTC-NH2; disulfide 1-13, 5-10) gave an Activity in test [1] of 152%.

On to `CC[C@H](C)[C@@H]1NC(=O)[C@@H](NC(=O)[C@H](Cc2ccc(O)cc2)NC(C)=O)C/C=C/C[C@@H](C(=O)N[C@@H](Cc2c[nH]c3ccccc23)C(=O)O)NC(=O)[C@H](Cc2cnc[nH]2)NC(=O)[C@H](Cc2cnc[nH]2)NC(=O)[C@H](CCC(=O)O)NC1=O` (Ac-Y[AllylGly]IEHH[AllylGly]W-OH; staple (E) 2-7), for which, in test [1], the result was inactive.

With `CC(C)[C@@H]1NC(=O)[C@@H](N)CSSC[C@@H](C(N)=O)NC(=O)[C@H]([C@@H](C)O)NC(=O)[C@H](Cc2c[nH]c3ccccc23)NC(=O)[C@H](C)NC(=O)[C@@H]2CSSC[C@H](NC(=O)[C@H](C)NC(=O)[C@H](Cc3ccc(O)cc3)NC(=O)[C@H](C)NC1=O)C(=O)N[C@@H](CCC(=O)O)C(=O)N[C@@H](Cc1cnc[nH]1)C(=O)N2` (H-CVAYACEHCAWTC-NH2; disulfide 1-13, 6-9), the Activity in test [1] is 84%.

`CC(C)[C@@H]1NC(=O)[C@@H](N)CSSC[C@@H](C(N)=O)NC(=O)[C@H]([C@@H](C)O)NC(=O)[C@H](Cc2c[nH]c3ccccc23)NC(=O)[C@@H]2CSSC[C@H](NC(=O)[C@H](Cc3ccc(O)cc3)NC(=O)[C@H](C)NC1=O)C(=O)N[C@@H](Cc1ccccc1)C(=O)N[C@@H](CCC(=O)O)C(=O)N[C@@H](Cc1cnc[nH]1)C(=O)N[C@@H](Cc1cnc[nH]1)C(=O)N2` (H-CVAYCFEHHCWTC-NH2; disulfide 1-13, 5-10): in test [1], the Activity worked out at 583%.

As to `CC(C)C[C@@H]1NC(=O)[C@@H]2CSSC[C@H](NC(=O)[C@H](Cc3cnc[nH]3)NC(=O)[C@H](Cc3cnc[nH]3)NC(=O)[C@H](CCC(=O)O)NC1=O)C(=O)N[C@@H](Cc1c[nH]c3ccccc13)C(=O)N[C@@H]([C@@H](C)O)C(=O)N[C@H](C(N)=O)CSSC[C@H](N)C(=O)N[C@@H](C(C)C)C(=O)N[C@@H](C)C(=O)N[C@@H](Cc1ccc(O)cc1)C(=O)N2` (H-CVAYCLEHHCWTC-NH2; disulfide 1-13, 5-10), the Activity in test [1] stood at 436%.

As to `CC(C)[C@@H]1NC(=O)[C@@H](N)CSSC[C@@H](C(N)=O)NC(=O)[C@H]([C@@H](C)O)NC(=O)[C@H](Cc2c[nH]c3ccccc23)NC(=O)[C@@H]2CSSC[C@H](NC(=O)[C@H](Cc3ccc(O)cc3)NC(=O)[C@H](C)NC1=O)C(=O)N[C@@H](C)C(=O)N[C@@H](CCC(=O)O)C(=O)N[C@@H](Cc1cnc[nH]1)C(=O)N[C@@H](Cc1cnc[nH]1)C(=O)N2` (H-CVAYCAEHHCWTC-NH2; disulfide 1-13, 5-10), in test [1], the Activity turned out to be 299%.

In turn, `CC(C)[C@@H]1NC(=O)[C@@H](N)CSSC[C@@H](C(=O)O)NC(=O)[C@H]([C@@H](C)O)NC(=O)[C@H](Cc2c[nH]c3ccccc23)NC(=O)[C@@H]2C/C=C/C[C@H](NC(=O)[C@H](Cc3ccc(O)cc3)NC(=O)[C@H](C)NC1=O)C(=O)N[C@@H](Cc1ccccc1)C(=O)N[C@@H](CCC(=O)O)C(=O)N[C@@H](Cc1cnc[nH]1)C(=O)N[C@@H](Cc1cnc[nH]1)C(=O)N2` (H-CVAY[AllylGly]FEHH[AllylGly]WTC-OH; disulfide 1-13; staple (E) 5-10) displayed a fold change (FC) in test [2] of 4. Further, the Activity in test [1] was 223%.

Turning to `CC(C)[C@@H]1NC(=O)[C@@H](N)CSSC[C@@H](C(=O)O)NC(=O)[C@H]([C@@H](C)O)NC(=O)[C@H](Cc2c[nH]c3ccccc23)NC(=O)CCCCCCCNC(=O)[C@H](Cc2ccc(O)cc2)NC(=O)[C@H](C)NC1=O` (H-CVAY[Aoc]WTC-OH; disulfide 1-8), the outcome in test [1] was inactive.

In the case of `CC[C@H](C)[C@@H]1NC(=O)[C@@H](NC(=O)[C@H](Cc2ccc(O)cc2)NC(C)=O)C/C=C/C[C@@H](C(=O)N[C@@H](Cc2c[nH]c3ccccc23)C(N)=O)NC(=O)[C@H](Cc2cnc[nH]2)NC(=O)[C@H](Cc2cnc[nH]2)NC(=O)[C@H](CCC(=O)O)NC1=O` (Ac-Y[AllylGly]IEHH[AllylGly]W-NH2; staple (E) 2-7), the result in test [1] was inactive.

Molecule `CC[C@H](C)[C@@H]1NC(=O)[C@@H]2CSSC[C@H](NC(=O)[C@H](C)NC(=O)[C@H](Cc3cnc[nH]3)NC(=O)[C@H](C)NC1=O)C(=O)N[C@@H](Cc1c[nH]c3ccccc13)C(=O)N[C@@H]([C@@H](C)O)C(=O)N[C@H](C(N)=O)CSSC[C@H](N)C(=O)N[C@@H](C(C)C)C(=O)N[C@@H](C)C(=O)N[C@@H](Cc1ccc(O)cc1)C(=O)N2` (H-CVAYCIAHACWTC-NH2; disulfide 1-13, 5-10) had an Activity in test [1] of 239%.

As to `CC[C@H](C)[C@@H]1NC(=O)[C@@H]2C/C=C/C[C@H](NC(=O)[C@H](Cc3cnc[nH]3)NC(=O)[C@H](Cc3cnc[nH]3)NC(=O)[C@H](CCC(=O)O)NC1=O)C(=O)N[C@@H](Cc1c[nH]c3ccccc13)C(=O)N[C@@H]([C@@H](C)O)C(=O)N[C@H](C(=O)O)CSSC[C@H](N)C(=O)N[C@@H](C(C)C)C(=O)N[C@@H](C)C(=O)N[C@@H](Cc1ccc(O)cc1)C(=O)N2` (H-CVAY[AllylGly]IEHH[AllylGly]WTC-OH; disulfide 1-13; staple (E) 5-10), in test [1], the Activity turned out to be 189%.

As for `CC[C@H](C)[C@@H]1NC(=O)[C@@H]2C/C=C/C[C@H](NC(=O)[C@H](Cc3cnc[nH]3)NC(=O)[C@H](C)NC(=O)[C@H](C)NC1=O)C(=O)N[C@@H](Cc1c[nH]c3ccccc13)C(=O)N[C@@H]([C@@H](C)O)C(=O)N[C@H](C(=O)O)CSSC[C@H](N)C(=O)N[C@@H](C(C)C)C(=O)N[C@@H](C)C(=O)N[C@@H](Cc1ccc(O)cc1)C(=O)N2` (H-CVAY[AllylGly]IAAH[AllylGly]WTC-OH; disulfide 1-13; staple (E) 5-10), the fold change (FC) in test [2] came to 4. Also, the Activity in test [1] stood at 225%.

Regarding `CC[C@H](C)[C@@H]1NC(=O)[C@@H]2CSSC[C@H](NC(=O)[C@H](Cc3cnc[nH]3)NC(=O)[C@H](Cc3cnc[nH]3)NC(=O)[C@H](CCC(=O)O)NC1=O)C(=O)N[C@@H](Cc1c[nH]c3ccccc13)C(=O)N[C@@H]([C@@H](C)O)C(=O)N[C@H](C(=O)O)CSSC[C@H](N)C(=O)N[C@@H](C(C)C)C(=O)N[C@@H](C)C(=O)N[C@@H](Cc1ccc(O)cc1)C(=O)N2` (H-CVAYCIEHHCWTC-OH; disulfide 1-13, 5-10), in test [1], the Activity was found to be 625%.

As for `CC[C@H](C)[C@@H]1NC(=O)[C@@H]2CSSC[C@H](NC(=O)[C@H](C)NC(=O)[C@H](C)NC(=O)[C@H](CCC(=O)O)NC1=O)C(=O)N[C@@H](Cc1c[nH]c3ccccc13)C(=O)N[C@@H]([C@@H](C)O)C(=O)N[C@H](C(N)=O)CSSC[C@H](N)C(=O)N[C@@H](C(C)C)C(=O)N[C@@H](C)C(=O)N[C@@H](Cc1ccc(O)cc1)C(=O)N2` (H-CVAYCIEAACWTC-NH2; disulfide 1-13, 5-10), the Activity in test [1] was 226%.

Take `CC[C@H](C)[C@@H]1NC(=O)[C@@H]2CSSC[C@H](NC(=O)[C@H](Cc3cnc[nH]3)NC(=O)[C@H](Cc3cnc[nH]3)NC(=O)[C@H](CCC(=O)O)NC1=O)C(=O)N[C@@H](Cc1c[nH]c3ccccc13)C(=O)N[C@@H](C)C(=O)N[C@H](C(N)=O)CSSC[C@H](N)C(=O)N[C@@H](C)C(=O)N[C@@H](C)C(=O)N[C@@H](Cc1ccc(O)cc1)C(=O)N2` (H-CAAYCIEHHCWAC-NH2; disulfide 1-13, 5-10): the Activity in test [1] stood at 127%.

Consider `CC[C@H](C)[C@@H]1NC(=O)[C@@H]2CSSC[C@H](NC(=O)[C@H](Cc3cnc[nH]3)NC(=O)[C@H](C)NC(=O)[C@H](C)NC1=O)C(=O)N[C@@H](Cc1c[nH]c3ccccc13)C(=O)N[C@@H]([C@@H](C)O)C(=O)N[C@H](C(N)=O)CSSC[C@H](N)C(=O)N[C@@H](C(C)C)C(=O)N[C@@H](C)C(=O)N[C@@H](Cc1ccc(O)cc1)C(=O)N2` (H-CVAYCIAAHCWTC-NH2; disulfide 1-13, 5-10), for which the Activity in test [1] is 476%.

The molecule `CC[C@H](C)[C@@H]1NC(=O)[C@@H]2CSSC[C@H](NC(=O)[C@H](C)NC(=O)[C@H](C)NC(=O)[C@H](C)NC1=O)C(=O)N[C@@H](Cc1c[nH]c3ccccc13)C(=O)N[C@@H]([C@@H](C)O)C(=O)N[C@H](C(N)=O)CSSC[C@H](N)C(=O)N[C@@H](C(C)C)C(=O)N[C@@H](C)C(=O)N[C@@H](Cc1ccc(O)cc1)C(=O)N2` (H-CVAYCIAAACWTC-NH2; disulfide 1-13, 5-10) yielded an Activity in test [1] of 165%.
